Earlier results in patent US4657924A, “Nafazatrom as a lipoxygenase inhibitor” (priority 1983, dated 1987).

How the values were obtained:
cyclooxygenase = settings: stated disadvantage; cited from earlier work
[1] = system: synthesis of prostaglandins from arachidonic acid; settings: comparison with nafazatrom; cited from earlier work

CCCCCC#CCC#CCC#CCC#CCCCC(=O)O [5,8,11,14-eicosatetrainoic acid]
activity of known lipoxygenase inhibitors as cyclooxygenase inhibitors (cyclooxygenase): either at the same time active as cyclooxygenase inhibitors or active only in very high concentrations

COc1ccc2c(c1)c(CC(=O)O)c(C)n2C(=O)c1ccc(Cl)cc1 [indomethacin]
action on the synthesis of prostaglandins from arachidonic acid [1]: overall inhibiting action

CC(Cc1ccc(O)c(O)c1)C(C)Cc1ccc(O)c(O)c1 (stereo not shown) [nordihydroguaiaretic acid]
activity of known lipoxygenase inhibitors as cyclooxygenase inhibitors (cyclooxygenase): either at the same time active as cyclooxygenase inhibitors or active only in very high concentrations

O=C1CCN(c2ccccc2)N1 [phenidone]
activity of known lipoxygenase inhibitors as cyclooxygenase inhibitors (cyclooxygenase): either at the same time active as cyclooxygenase inhibitors or active only in very high concentrations
